Laboratory results from publication PMC11202169, “A Novel Fluorescence-Based Microplate Assay for High-Throughput Screening of hSULT1As Inhibitors” (Biosensors, 2024).
Like-named read-outs stand apart in the source and are kept apart here.

What was measured:
Type in all cases: biochemical
hSULT1A1 = target: T1, hSULT1A1 (Homo sapiens, UniProt P50225); assay: Fluorescence-based microplate inhibition assay, hSULT1A1-catalyzed HN-241 4-O-sulfation; details: for activity at 1 µM: read-out: Residue activity (%) hSULT1A1; for IC50: hSULT1A1-catalyzed HN-241 4-O-sulfation;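 for all read-outs here: reaction started with 200 µM PAPS at 37 °C, fluorescence read continuously (Ex 350 nm, Em 450 nm), activity expressed relative to DMSO-only control without inhibitor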
T1 construct: 6-histidine tag (N); TEV site (N); made in house; host or cells: Escherichia coli BL21 (DE3), pET29a(+)

hSULT1A3 = target: T2, hSULT1A3 (Homo sapiens, UniProt P0DMM9); assay: Fluorescence-based microplate inhibition assay, hSULT1A3-catalyzed HN-241 4-O-sulfation; details: for activity at 10 µM: read-out: Residue activity (%) hSULT1A3
T2 construct: 6-histidine tag (N); TEV site (N); made in house; host or cells: Escherichia coli BL21 (DE3), pET29a(+)

hSULT1A2 = target: T3, hSULT1A2 (Homo sapiens, UniProt P50226); assay: Fluorescence-based microplate inhibition assay, hSULT1A2-catalyzed HN-241 4-O-sulfation; details: for remaining activity at 10 µM: 0.25 h, read-out: Residue activity (%) hSULT1A2
T3 construct: 6-histidine tag (N); TEV site (N); made in house; host or cells: Escherichia coli BL21 (DE3), pET29a(+)

[1] = test compound 1 μM, HN-241 1 μM, 15 min
[2] = test compound 10 μM, HN-241 10 μM, 15 min
[3] = test compound 10 μM, HN-241 5 μM, 15 min

T2 sequence (P0DMM9 whole entry): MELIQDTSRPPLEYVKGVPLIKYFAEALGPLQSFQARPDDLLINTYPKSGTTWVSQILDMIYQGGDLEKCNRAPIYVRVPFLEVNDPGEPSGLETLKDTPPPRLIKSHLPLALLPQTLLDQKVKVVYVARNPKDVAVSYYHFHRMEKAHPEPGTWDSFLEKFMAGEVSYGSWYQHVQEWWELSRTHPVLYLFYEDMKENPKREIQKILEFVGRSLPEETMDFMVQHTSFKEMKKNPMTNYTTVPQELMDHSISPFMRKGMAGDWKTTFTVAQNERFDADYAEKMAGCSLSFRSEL
T3 sequence (P50226 whole entry): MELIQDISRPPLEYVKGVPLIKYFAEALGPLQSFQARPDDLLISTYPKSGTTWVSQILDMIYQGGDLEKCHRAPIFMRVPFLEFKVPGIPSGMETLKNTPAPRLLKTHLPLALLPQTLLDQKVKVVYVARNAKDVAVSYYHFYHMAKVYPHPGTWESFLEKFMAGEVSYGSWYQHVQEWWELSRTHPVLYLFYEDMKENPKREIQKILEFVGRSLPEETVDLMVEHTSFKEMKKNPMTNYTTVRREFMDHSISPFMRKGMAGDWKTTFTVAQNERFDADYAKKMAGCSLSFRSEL
T1 sequence (P50225 whole entry): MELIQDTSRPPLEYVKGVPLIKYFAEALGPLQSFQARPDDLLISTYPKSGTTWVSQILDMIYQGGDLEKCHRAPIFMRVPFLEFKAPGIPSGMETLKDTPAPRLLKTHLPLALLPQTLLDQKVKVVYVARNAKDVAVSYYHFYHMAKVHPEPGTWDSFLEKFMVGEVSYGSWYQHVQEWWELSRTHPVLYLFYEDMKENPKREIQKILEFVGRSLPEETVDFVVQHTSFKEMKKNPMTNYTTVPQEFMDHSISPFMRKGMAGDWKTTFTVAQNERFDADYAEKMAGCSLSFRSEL

| Compound | activity at 1 µM (hSULT1A1; [1]) [%] | activity at 10 µM (hSULT1A3; [2]) [%] | remaining activity at 10 µM (hSULT1A2; [3]) [%] | further results |
| --- | --- | --- | --- | --- |
| CC(C)=CCOc1c2ccoc2cc2oc(=O)ccc12 [Isoimperatorin] | 92.5 | 92.1 | 106 |  |
| COc1cc(-c2oc3cc(O)cc(O)c3c(=O)c2O)ccc1O [Isorhamnetin] | 1.36 | 58.3 | 0.39 |  |
| COc1cc(O)c(CC=C(C)C)c2c1C(=O)CC(c1ccc(O)cc1)O2 (stereo not shown) [Isoxanthohumol] | 15.8 | 88 | 68.4 |  |
| COc1c(/C=C/C(=O)c2ccc(O)c(CC=C(C)C)c2)ccc(O)c1O [Licochalcone D] | 0 | 30.9 | 0.21 | IC50 (hSULT1A1): 5.37 ± 0.18 nM |
| O=C1C[C@@H](c2ccc(O)cc2)Oc2cc(O)ccc21 [Liquiritigenin] |  |  |  | Residue activity (%) hSULT1A1 (hSULT1A1; [1]): 58.91%; Residue activity (%) hSULT1A3 (hSULT1A3; [2]): 76.68%; Residue activity (%) hSULT1A2 (hSULT1A2; [3]): 25.92% |
| O=C1C[C@@H](c2ccc(O[C@@H]3O[C@H](CO)[C@@H](O)[C@H](O)[C@H]3O)cc2)Oc2cc(O)ccc21 [Liquiritin] | 100 | 100 | 95.1 |  |
| C[C@@H]1[C@H]2[C@H](O[C@@H]3O[C@H](CO)[C@@H](O)[C@H](O)[C@H]3O)OC=C(C(=O)O)[C@H]2C[C@@H]1O [Loganic acid] | 128 | 119 | 98.6 |  |
| COc1cc(OC)c(CCC(=O)c2ccc(O)cc2)c(OC)c1 [Loureirin B] |  |  |  | Residue activity (%) hSULT1A1 (hSULT1A1; [1]): 5.84%; Residue activity (%) hSULT1A3 (hSULT1A3; [2]): 71.91%; Residue activity (%) hSULT1A2 (hSULT1A2; [3]): 6.16% |
| COC(=O)/C=C/c1ccc(O)c(O)c1 [Methyl caffeate acid] |  |  |  | Residue activity (%) hSULT1A1 (hSULT1A1; [1]): 9.01%; Residue activity (%) hSULT1A3 (hSULT1A3; [2]): 44.99%; Residue activity (%) hSULT1A2 (hSULT1A2; [3]): 12.99% |
| Cc1c(O)c(C)c2c(c1O)C(=O)[C@H](Cc1ccc3c(c1)OCO3)CO2 [Methylophiopogonanone A] |  |  |  | Residue activity (%) hSULT1A1 (hSULT1A1; [1]): 28.87%; Residue activity (%) hSULT1A3 (hSULT1A3; [2]): 79.90%; Residue activity (%) hSULT1A2 (hSULT1A2; [3]): 0.52% |
| O=c1c(O)c(-c2ccc(O)cc2O)oc2cc(O)cc(O)c12 [Morin] | 50.7 | 55.7 | 4.73 |  |
| CC(C)=CCc1c(-c2ccc(O)cc2O)oc2c(CC=C(C)C)c(O)cc(O)c2c1=O [Mulberrin] |  |  |  | Residue activity (%) hSULT1A1 (hSULT1A1; [1]): 53.37%; Residue activity (%) hSULT1A3 (hSULT1A3; [2]): 70.86%; Residue activity (%) hSULT1A2 (hSULT1A2; [3]): 143.65% |
| O=c1c(O)c(-c2cc(O)c(O)c(O)c2)oc2cc(O)cc(O)c12 [Myricetin] | 0.08 | 39.8 | 4.43 |  |
| COc1cc(-c2oc3cc(O)cc(O)c3c(=O)c2O[C@@H]2O[C@H](CO[C@@H]3O[C@@H](C)[C@H](O)[C@@H](O)[C@H]3O)[C@@H](O)[C@H](O)[C@H]2O)ccc1O [Narcissoside] |  |  |  | Residue activity (%) hSULT1A1 (hSULT1A1; [1]): 99.20%; Residue activity (%) hSULT1A3 (hSULT1A3; [2]): 60.08%; Residue activity (%) hSULT1A2 (hSULT1A2; [3]): 86.78% |
| O=C(/C=C/c1ccc(O[C@@H]2O[C@H](CO)[C@@H](O)[C@H](O)[C@H]2O)cc1)c1ccc(O)cc1O [Neoisoliquiritigenin] |  |  |  | Residue activity (%) hSULT1A1 (hSULT1A1; [1]): 91.36%; Residue activity (%) hSULT1A3 (hSULT1A3; [2]): 108.00%; Residue activity (%) hSULT1A2 (hSULT1A2; [3]): 84.48% |
| CC1(C)CC[C@]2(C(=O)O)CC[C@]3(C)C(=CC[C@@H]4[C@@]5(C)CC[C@H](O)C(C)(C)[C@@H]5CC[C@]43C)[C@@H]2C1 [Oleanolic acid] | 127 | 114 | 101 |  |
| CCCCCCCCCCCCCCCC(=O)O [Palmitic acid] | 93.1 | 113 | 84.8 |  |

| Compound | activity at 1 µM (hSULT1A1; [1]) [%] | activity at 10 µM (hSULT1A3; [2]) [%] | remaining activity at 10 µM (hSULT1A2; [3]) [%] | further results |
| --- | --- | --- | --- | --- |
| COc1ccc(-c2cc(=O)c3c(O)c(OC)c(O)cc3o2)cc1 [Pectolinarigenin] | 1.12 | 1.34 | 0 | IC50 (hSULT1A1): 9.52 ± 0.39 nM; IC50 (hSULT1A3; hSULT1A3-catalyzed HN-241 4-O-sulfation): 4360 ± 252 nM; IC50 (hSULT1A2; hSULT1A2-catalyzed HN-241 4-O-sulfation): 87.2 ± 3.16 nM |
| COc1cc([C@@H]2c3cc4c(cc3[C@H](O)[C@H]3COC(=O)[C@H]23)OCO4)cc(OC)c1OC [Podophyllotoxin] |  |  |  | activity at 1 µM (hSULT1A1): 110%; activity at 10 µM (hSULT1A3): 111%; remaining activity at 10 µM (hSULT1A2): 88.9% |
| O=c1c(O)c(-c2ccc(O)c(O)c2)oc2cc(O)cc(O)c12 [Quercetin, reference compound] | 0 | 39.9 | 0.1 |  |
| C[C@]12CC[C@H](O)C[C@H]1CC[C@@H]1[C@@H]2CC[C@]2(C)[C@@H](c3ccc(=O)oc3)C[C@H]3O[C@]132 [Resibufogenin] |  |  |  | activity at 1 µM (hSULT1A1): 127%; activity at 10 µM (hSULT1A3): 113%; remaining activity at 10 µM (hSULT1A2): 99.2% |
| O=C(O)c1cc(O)c2c(c1)C(=O)c1cccc(O)c1C2=O [Rhein] | 59.4 | 96.9 | 0.83 |  |
| C=C(C)[C@H]1Cc2c(ccc3c2O[C@@H]2COc4cc(OC)c(OC)cc4[C@@H]2C3=O)O1 [Rotenone] |  |  |  | activity at 1 µM (hSULT1A1): 109%; activity at 10 µM (hSULT1A3): 106%; remaining activity at 10 µM (hSULT1A2): 102% |
| COc1cc2c(c(OC)c1OC)-c1c(cc(OC)c(OC)c1OC)C[C@](C)(O)[C@@H](C)C2 [Schisandrin] |  |  |  | Residue activity (%) hSULT1A1 (hSULT1A1; [1]): 129.29%; Residue activity (%) hSULT1A3 (hSULT1A3; [2]): 123.25%; Residue activity (%) hSULT1A2 (hSULT1A2; [3]): 102.92% |
| C/C=C(/C)C(=O)O[C@H]1c2cc(OC)c(OC)c(OC)c2-c2c(cc3c(c2OC)OCO3)C[C@H](C)[C@]1(C)O [Schisantherin B] | 109 | 108 | 109 |  |
| COc1ccc(-c2cc(=O)c3c(O)cc(O)c(-c4cc(-c5cc(=O)c6c(O)cc(OC)cc6o5)ccc4OC)c3o2)cc1 [Sciadopitysin] |  |  |  | Residue activity (%) hSULT1A1 (hSULT1A1; [1]): 27.69%; Residue activity (%) hSULT1A3 (hSULT1A3; [2]): 62.24%; Residue activity (%) hSULT1A2 (hSULT1A2; [3]): 2.03% |
| CC(C)=CC[C@@H](O)C1=CC(=O)c2c(O)ccc(O)c2C1=O [Shikonin] | 64.5 | 61 | 18.6 |  |
| COC1=C[C@@H]2[C@@H]3Cc4ccc(OC)c(O)c4[C@]2(CCN3C)CC1=O [Sinomenine] | 103 | 110 | 103 |  |
| O=C1c2c(O)cc(O)cc2OC(c2ccc(O)c(O)c2)C1O (stereo not shown) [Taxifolin] | 3.26 | 59.7 | 41.7 |  |
| COc1c(O)cc2occ(-c3ccc(O)cc3)c(=O)c2c1O [Tectorigenin] | 4.17 | 86.8 | 4.26 |  |
| O=C(O[C@@H]1[C@@H](O)[C@H](Oc2cc(O)c(C(=O)CCc3ccccc3)c(O)c2)O[C@@H]2COC(=O)c3cc(O)c(O)c(O)c3-c3c(cc(O)c(O)c3O)C(=O)O[C@@H]12)c1cc(O)c(O)c(O)c1 [Thonningianin A] | 12 | 17.6 | 3.29 |  |
| CC(C)[C@]12O[C@H]1[C@@H]1O[C@]13[C@]1(O[C@H]1C[C@H]1C4=C(CC[C@@]13C)C(=O)OC4)[C@@H]2O [Triptolide] | 109 | 110 | 119 |  |
| O=c1cc(-c2ccc(O)cc2)oc2c([C@@H]3O[C@H](CO)[C@@H](O)[C@H](O)[C@H]3O)c(O)cc(O)c12 [Vitexin] | 102 | 108 | 115 |  |
| Cc1c2[n+](cc3cc4c(cc13)OCO4)CCc1cc3c(cc1-2)OCO3 [Worenine] |  |  |  | Residue activity (%) hSULT1A1 (hSULT1A1; [1]): 101.91%; Residue activity (%) hSULT1A3 (hSULT1A3; [2]): 125.56%; Residue activity (%) hSULT1A2 (hSULT1A2; [3]): 92.89% |
